From ChEMBL document CHEMBL1201861, “Genomics of Drug Sensitity in Cancer screening data, Wellcome Trust Sanger Institute”
pIC50: −log10 of the molar value.

How the values were obtained:
Test in all cases: cells
COLO-741 = assay type: functional, cell-based, Homo sapiens; details: Homo sapiens, COLO-741
Description: SANGER: Inhibition of human COLO-741 cell growth in a cell viability assay.

CTB-1 = assay type: functional, cell-based; details: Homo sapiens
Description: SANGER: Inhibition of human CTB-1 cell growth in a cell viability assay.

CaR-1 = assay type: functional, cell-based, Homo sapiens; details: Homo sapiens, CaR-1;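 also: growth inhibition of human CaR-1 cancer cells, read out with a cell viability assay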
Description: SANGER: Inhibition of human CaR-1 cell growth in a cell viability assay.

EFM-19 = assay type: functional, cell-based, Homo sapiens; details: Homo sapiens, EFM-19;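 also: growth inhibition of human EFM-19 cells, measured in a cell viability assay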
Description: SANGER: Inhibition of human EFM-19 cell growth in a cell viability assay.

EGI-1 = assay type: functional, cell-based, Homo sapiens; details: Homo sapiens, EGI-1;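 also: cell viability readout used to gauge growth inhibition of EGI-1 cells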
Description: SANGER: Inhibition of human EGI-1 cell growth in a cell viability assay.

ES5 = assay type: functional, cell-based, Homo sapiens; details: Homo sapiens, ES5;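 also: growth inhibition of human ES5 cells, read out by a cell viability assay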
Description: SANGER: Inhibition of human ES5 cell growth in a cell viability assay.

HCE-T = assay type: functional, cell-based, Homo sapiens; details: Homo sapiens, HCE-T;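 also: cell viability assay read-out, reporting inhibition of HCE-T cell growth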
Description: SANGER: Inhibition of human HCE-T cell growth in a cell viability assay.

HDLM-2 = assay type: functional, cell-based; details: Homo sapiens;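 also: cell viability assay measuring suppression of HDLM-2 proliferation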
Description: SANGER: Inhibition of human HDLM-2 cell growth in a cell viability assay.

HEC-1 = assay type: functional, cell-based, Homo sapiens; details: Homo sapiens, HEC-1;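 also: growth inhibition of the cell line, read out with a cell viability assay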
Description: SANGER: Inhibition of human HEC-1 cell growth in a cell viability assay.

Huh-7 = assay type: functional, cell-based, Homo sapiens; details: Homo sapiens, Huh-7;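 also: HuH-7 cell growth inhibition, read out with a cell viability assay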
Description: SANGER: Inhibition of human HuH-7 cell growth in a cell viability assay.

KG-1 = assay type: functional, cell-based; details: Homo sapiens;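 also: growth inhibition of KG-1 cells, read out by a cell viability assay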
Description: SANGER: Inhibition of human KG-1 cell growth in a cell viability assay.

LK-2 = assay type: functional, cell-based, Homo sapiens; details: Homo sapiens, LK-2;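 also: growth inhibition of LK-2 cells, read out with a viability assay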
Description: SANGER: Inhibition of human LK-2 cell growth in a cell viability assay.

LS-513 = assay type: functional, cell-based, Homo sapiens; details: Homo sapiens, LS-513
Description: SANGER: Inhibition of human LS-513 cell growth in a cell viability assay.

Lu-65 = assay type: functional, cell-based; details: Homo sapiens;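 also: growth inhibition of Lu-65 cancer cells, read out by a cell viability assay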
Description: SANGER: Inhibition of human LU-65 cell growth in a cell viability assay.

M14 = assay type: functional, cell-based, Homo sapiens; details: Homo sapiens, M14;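 also: growth inhibition of M14 cells, read out with a cell viability assay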
Description: SANGER: Inhibition of human M14 cell growth in a cell viability assay.

MC116 = assay type: functional, cell-based; details: Homo sapiens;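 also: growth inhibition of MC116 cells, read out with a cell viability assay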
Description: SANGER: Inhibition of human MC116 cell growth in a cell viability assay.

MHH-PREB-1 = assay type: functional, cell-based; details: Homo sapiens;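 also: cell viability assay measuring inhibition of proliferation of human MHH-PREB-1 cells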
Description: SANGER: Inhibition of human MHH-PREB-1 cell growth in a cell viability assay.

MKN-1 = assay type: functional, cell-based, Homo sapiens; details: Homo sapiens, MKN-1;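 also: growth inhibition of human MKN1 cells, read out by a cell viability measurement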
Description: SANGER: Inhibition of human MKN1 cell growth in a cell viability assay.

NCI-H1693 = assay type: functional, cell-based, Homo sapiens; details: Homo sapiens, NCI-H1693;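 also: growth inhibition of the human cell line, read out with a cell viability assay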
Description: SANGER: Inhibition of human NCI-H1693 cell growth in a cell viability assay.

NCI-H1838 = assay type: functional, cell-based, Homo sapiens; details: Homo sapiens, NCI-H1838;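 also: growth inhibition of NCI-H1838 cells, determined with a cell viability readout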
Description: SANGER: Inhibition of human NCI-H1838 cell growth in a cell viability assay.

NCI-H2342 = assay type: functional, cell-based; details: Homo sapiens;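 also: growth inhibition of the cancer cell line, determined with a cell viability assay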
Description: SANGER: Inhibition of human NCI-H2342 cell growth in a cell viability assay.

NCI-H28 = assay type: functional, cell-based, Homo sapiens; details: Homo sapiens, NCI-H28;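 also: growth inhibition of human NCI-H28 cells, read out as cell viability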
Description: SANGER: Inhibition of human NCI-H28 cell growth in a cell viability assay.

NCI-H520 = assay type: functional, cell-based, Homo sapiens; details: Homo sapiens, NCI-H520;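 also: growth inhibition of NCI-H520 cells, measured by a cell viability assay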
Description: SANGER: Inhibition of human NCI-H520 cell growth in a cell viability assay.

NCI-H650 = assay type: functional, cell-based, Homo sapiens; details: Homo sapiens, NCI-H650;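 also: growth inhibition of NCI-H650 cells, read out by a viability assay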
Description: SANGER: Inhibition of human NCI-H650 cell growth in a cell viability assay.

NCI-H747 = assay type: functional, cell-based; details: Homo sapiens;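 also: growth inhibition of human NCI-H747 cells, read out by a cell viability assay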
Description: SANGER: Inhibition of human NCI-H747 cell growth in a cell viability assay.

NCI-N87 = assay type: functional, cell-based, Homo sapiens; details: Homo sapiens, NCI-N87;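 also: growth inhibition of human NCI-N87 cells, read out with a cell viability assay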
Description: SANGER: Inhibition of human NCI-N87 cell growth in a cell viability assay.

NKM-1 = assay type: functional, cell-based; details: Homo sapiens;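 also: growth inhibition of NKM-1 cells, read out with a cell viability assay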
Description: SANGER: Inhibition of human NKM-1 cell growth in a cell viability assay.

NTERA-2-cl-D1 = assay type: functional, cell-based, Homo sapiens; details: Homo sapiens, NTERA-2-cl-D1;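 also: inhibition of cell growth, measured with a cell viability assay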
Description: SANGER: Inhibition of human NTERA-S-cl-D1 cell growth in a cell viability assay.

RCC10RGB = assay type: functional, cell-based, Homo sapiens; details: Homo sapiens, RCC10RGB;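 also: growth inhibition of human RCC10RGB cells, read out by a cell viability assay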
Description: SANGER: Inhibition of human RCC10RGB cell growth in a cell viability assay.

RKO = assay type: functional, cell-based, Homo sapiens; details: Homo sapiens, RKO;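 also: growth inhibition of human RKO cells, read out with a cell viability assay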
Description: SANGER: Inhibition of human RKO cell growth in a cell viability assay.

RVH-421 = assay type: functional, cell-based, Homo sapiens; details: Homo sapiens, RVH-421
Description: SANGER: Inhibition of human RVH-421 cell growth in a cell viability assay.

RXF 393 = assay type: functional, cell-based; details: Homo sapiens;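 also: growth inhibition of human RXF 393 cells, read out with a cell viability assay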
Description: SANGER: Inhibition of human RXF393 cell growth in a cell viability assay.

SCC-4 = assay type: functional, cell-based, Homo sapiens; details: Homo sapiens, SCC-4;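 also: growth inhibition of human SCC-4 cells, read out as cell viability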
Description: SANGER: Inhibition of human SCC-4 cell growth in a cell viability assay.

SCC-9 = assay type: functional, cell-based, Homo sapiens; details: Homo sapiens, SCC-9;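 also: Read-out is a cell viability assay, with values giving inhibition of cell growth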
Description: SANGER: Inhibition of human SCC-9 cell growth in a cell viability assay.

SHP77 = assay type: functional, cell-based, Homo sapiens, SHP-77; details: Homo sapiens, SHP77;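 also: growth inhibition of human SHP-77 cells measured by a cell viability assay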
Description: SANGER: Inhibition of human SHP-77 cell growth in a cell viability assay.

SW13 = assay type: functional, cell-based, Homo sapiens; details: Homo sapiens, SW13;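 also: IC50 is inhibition of SW13 cell growth, read out with a cell viability assay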
Description: SANGER: Inhibition of human SW13 cell growth in a cell viability assay.

SW1463 = assay type: functional, cell-based, Homo sapiens; details: Homo sapiens, SW1463;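 also: growth inhibition of SW1463 cells, determined with a cell viability assay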
Description: SANGER: Inhibition of human SW1463 cell growth in a cell viability assay.

SW1710 = assay type: functional, cell-based, Homo sapiens; details: Homo sapiens, SW1710;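 also: growth inhibition of SW1710 cells, determined with a cell viability assay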
Description: SANGER: Inhibition of human SW1710 cell growth in a cell viability assay.

SW48 = assay type: functional, cell-based, Homo sapiens; details: Homo sapiens, SW48;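 also: growth inhibition of SW48 cells, read out with a cell viability assay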
Description: SANGER: Inhibition of human SW48 cell growth in a cell viability assay.

SAOS-2 = assay type: functional, cell-based, Homo sapiens; details: Homo sapiens, SAOS-2;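 also: growth inhibition of human Saos-2 cells determined by a cell viability assay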
Description: SANGER: Inhibition of human Saos-2 cell growth in a cell viability assay.

8305C = assay type: functional, cell-based, Homo sapiens; details: Homo sapiens, 8305C
Description: SANGER: Inhibition of human 8305C cell growth in a cell viability assay.

A101D = assay type: functional, cell-based, Homo sapiens; details: Homo sapiens, A101D;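 also: growth inhibition of the cell line, measured with a viability assay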
Description: SANGER: Inhibition of human A101D cell growth in a cell viability assay.

AGS = assay type: functional, cell-based, Homo sapiens; details: Homo sapiens, AGS;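 also: growth inhibition of AGS cells, determined with a cell viability assay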
Description: SANGER: Inhibition of human AGS cell growth in a cell viability assay.

BT-20 = assay type: functional, cell-based, Homo sapiens; details: Homo sapiens, BT-20;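 also: cell viability assay measuring suppression of growth in human BT-20 cells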
Description: SANGER: Inhibition of human BT-20 cell growth in a cell viability assay.

CAL-27 = assay type: functional, cell-based, Homo sapiens; details: Homo sapiens, CAL-27;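 also: Viability-based readout, IC50 reflecting inhibition of CAL-27 cell growth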
Description: SANGER: Inhibition of human CAL-27 cell growth in a cell viability assay.

U-266 = assay type: functional, cell-based; details: Homo sapiens
Description: SANGER: Inhibition of human U-266 cell growth in a cell viability assay.

U-87 MG = assay type: functional, cell-based, U-87MG ATCC; details: Homo sapiens;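 also: growth inhibition of the cells measured with a viability assay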
Description: SANGER: Inhibition of human U-87-MG cell growth in a cell viability assay.

no-10 = assay type: functional, cell-based, Homo sapiens; details: Homo sapiens;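 also: growth inhibition of no-10 cells, read out with a cell viability assay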
Description: SANGER: Inhibition of human no-10 cell growth in a cell viability assay.

no-11 = assay type: functional, cell-based, Homo sapiens; details: Homo sapiens;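 also: growth inhibition of human NO-11 cells, read out with a cell viability assay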
Description: SANGER: Inhibition of human no-11 cell growth in a cell viability assay.

CAMA-1 = assay type: functional, cell-based, Homo sapiens; details: Homo sapiens, CAMA-1;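 also: growth inhibition of CAMA-1 cells, read out with a cell viability assay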
Description: SANGER: Inhibition of human CAMA-1 cell growth in a cell viability assay.

CGTH-W-1 = assay type: functional, cell-based, Homo sapiens; details: Homo sapiens, CGTH-W-1;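 also: growth inhibition of human CGTH-W-1 cells measured by cell viability assay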
Description: SANGER: Inhibition of human CGTH-W-1 cell growth in a cell viability assay.

With O=C1N=C(NCc2cccs2)S/C1=C\c1ccc2ncccc2c1 the pIC50 (COLO-741) was < 5.30, the pIC50 (CTB-1) was < 5.30 and the pIC50 (CaR-1) was < 5.30. The pIC50 (EFM-19) was < 5.30, the pIC50 (EGI-1) was < 5.30 and the pIC50 (ES5) was < 5.30. The pIC50 (HCE-T) was < 5.30, the pIC50 (HDLM-2) was < 5.30 and the pIC50 (HEC-1) was < 5.30. For the same compound, the pIC50 (Huh-7) was < 5.30, the pIC50 (KG-1) was < 5.30 and the pIC50 (LK-2) was < 5.30. For the same compound, the pIC50 (LS-513) was < 5.30, the pIC50 (Lu-65) was < 5.30 and the pIC50 (M14) was < 5.30. For the same compound, the pIC50 (MC116) was < 5.30, the pIC50 (MHH-PREB-1) was < 5.30 and the pIC50 (MKN-1) was < 5.30. For the same compound, the pIC50 (NCI-H1693) was < 5.30, the pIC50 (NCI-H1838) was < 5.30 and the pIC50 (NCI-H2342) was < 5.30. For the same compound, the pIC50 (NCI-H28) was < 5.30, the pIC50 (NCI-H520) was < 5.30 and the pIC50 (NCI-H650) was < 5.30. For the same compound, the pIC50 (NCI-H747) was < 5.30, the pIC50 (NCI-N87) was < 5.30 and the pIC50 (NKM-1) was < 5.30. For the same compound, the pIC50 (NTERA-2-cl-D1) was < 5.30, the pIC50 (RCC10RGB) was < 5.30 and the pIC50 (RKO) was < 5.30. For the same compound, the pIC50 (RVH-421) was < 5.30, the pIC50 (RXF 393) was < 5.30 and the pIC50 (SCC-4) was < 5.30. The pIC50 (SCC-9) was < 5.30, the pIC50 (SHP77) was < 5.30 and the pIC50 (SW13) was < 5.30. The pIC50 (SW1463) was < 5.30, the pIC50 (SW1710) was 5.79 and the pIC50 (SW48) was < 5.30. For the same compound, the pIC50 (SAOS-2) was < 5.30, the pIC50 (8305C) was < 5.30 and the pIC50 (A101D) was < 5.30. The pIC50 (AGS) was < 5.30, the pIC50 (BT-20) was < 5.30 and the pIC50 (CAL-27) was < 5.30. For the same compound, the pIC50 (U-266) was < 5.30, the pIC50 (U-87 MG) was < 5.30 and the pIC50 (no-10) was < 5.30. For the same compound, the pIC50 (no-11) was < 5.30, the pIC50 (CAMA-1) was < 5.30 and the pIC50 (CGTH-W-1) was < 5.30.

CCOc1nc(NC(=O)Cc2cc(OC)ccc2OC)cc(N)c1C#N was tested, and the pIC50 (COLO-741) was < 5.00, the pIC50 (CTB-1) was < 5.00 and the pIC50 (CaR-1) was < 5.00. For the same compound, the pIC50 (EFM-19) was < 5.00, the pIC50 (EGI-1) was < 5.00 and the pIC50 (ES5) was < 5.00. The pIC50 (HCE-T) was < 5.00, the pIC50 (HDLM-2) was < 5.00 and the pIC50 (HEC-1) was < 5.00. The pIC50 (Huh-7) was < 5.00, the pIC50 (KG-1) was < 5.00 and the pIC50 (LK-2) was < 5.00. The pIC50 (LS-513) was < 5.00, the pIC50 (Lu-65) was < 5.00 and the pIC50 (M14) was < 5.00. The pIC50 (MC116) was < 5.00, the pIC50 (MHH-PREB-1) was < 5.00 and the pIC50 (MKN-1) was < 5.00. For the same compound, the pIC50 (NCI-H1693) was < 5.00, the pIC50 (NCI-H1838) was < 5.00 and the pIC50 (NCI-H2342) was < 5.00. For the same compound, the pIC50 (NCI-H28) was < 5.00, the pIC50 (NCI-H520) was < 5.00 and the pIC50 (NCI-H650) was < 5.00. For the same compound, the pIC50 (NCI-H747) was < 5.00, the pIC50 (NCI-N87) was < 5.00 and the pIC50 (NKM-1) was < 5.00. For the same compound, the pIC50 (NTERA-2-cl-D1) was < 5.00, the pIC50 (RCC10RGB) was < 5.00 and the pIC50 (RKO) was < 5.00. For the same compound, the pIC50 (RVH-421) was < 5.00, the pIC50 (RXF 393) was < 5.00 and the pIC50 (SCC-4) was < 5.00. For the same compound, the pIC50 (SCC-9) was < 5.00, the pIC50 (SHP77) was < 5.00 and the pIC50 (SW13) was < 5.00. The pIC50 (SW1463) was < 5.00, the pIC50 (SW1710) was < 5.00 and the pIC50 (SW48) was < 5.00. The pIC50 (SAOS-2) was < 5.00, the pIC50 (8305C) was < 5.00 and the pIC50 (A101D) was < 5.00. The pIC50 (AGS) was < 5.00, the pIC50 (BT-20) was < 5.00 and the pIC50 (CAL-27) was < 5.00. The pIC50 (U-266) was < 5.00, the pIC50 (U-87 MG) was < 5.00 and the pIC50 (no-10) was < 5.00. The pIC50 (no-11) was < 5.00, the pIC50 (CAMA-1) was < 5.00 and the pIC50 (CGTH-W-1) was < 5.00.

In the case of C=CCNC1=C2C[C@@H](C)C[C@H](OC)[C@H](O)[C@@H](C)/C=C(\C)[C@H](OC(N)=O)[C@@H](OC)/C=C\C=C(/C)C(=O)NC(=CC1=O)C2=O [TANESPIMYCIN], the pIC50 (COLO-741) was < 6.00, the pIC50 (CTB-1) was 6.48 and the pIC50 (CaR-1) was 7.34. For the same compound, the pIC50 (EFM-19) was 6.13, the pIC50 (EGI-1) was < 6.00 and the pIC50 (ES5) was < 6.00. For the same compound, the pIC50 (HCE-T) was 6.41, the pIC50 (HDLM-2) was < 6.00 and the pIC50 (HEC-1) was 7.18. For the same compound, the pIC50 (Huh-7) was < 6.00, the pIC50 (KG-1) was < 6.00 and the pIC50 (LK-2) was 6.74. It also gave a pIC50 (LS-513) of 6.62, a pIC50 (Lu-65) of 6.03 and a pIC50 (M14) of 7.10. For the same compound, the pIC50 (MC116) was < 6.00, the pIC50 (MHH-PREB-1) was < 6.00 and the pIC50 (MKN-1) was 6.23. For the same compound, the pIC50 (NCI-H1693) was < 6.00, the pIC50 (NCI-H1838) was < 6.00 and the pIC50 (NCI-H2342) was < 6.00. For the same compound, the pIC50 (NCI-H28) was 6.93, the pIC50 (NCI-H520) was 6.41 and the pIC50 (NCI-H650) was 6.75. The pIC50 (NCI-H747) was 6.62, the pIC50 (NCI-N87) was 7.59 and the pIC50 (NKM-1) was 6.97. The pIC50 (NTERA-2-cl-D1) was 6.48, the pIC50 (RCC10RGB) was < 6.00 and the pIC50 (RKO) was 6.93. For the same compound, the pIC50 (RVH-421) was 6.72, the pIC50 (RXF 393) was 6.92 and the pIC50 (SCC-4) was 6.75. The pIC50 (SCC-9) was 6.78, the pIC50 (SHP77) was 6.04 and the pIC50 (SW13) was < 6.00. For the same compound, the pIC50 (SW1463) was < 6.00, the pIC50 (SW1710) was 6.53 and the pIC50 (SW48) was 7.30. It also gave a pIC50 (SAOS-2) of 6.06, a pIC50 (8305C) of 6.14 and a pIC50 (A101D) of 6.32. For the same compound, the pIC50 (AGS) was 7.71, the pIC50 (BT-20) was < 6.00 and the pIC50 (CAL-27) was 6.72. The pIC50 (U-266) was < 6.00, the pIC50 (U-87 MG) was 6.99 and the pIC50 (no-10) was < 6.00. It also gave a pIC50 (no-11) of 6.43, a pIC50 (CAMA-1) of 6.89 and a pIC50 (CGTH-W-1) of 7.63.
